These results are taken from PMC6154605, “Multi-Anti-Parasitic Activity of Arylidene Ketones and Thiazolidene Hydrazines against Trypanosoma cruzi and Leishmania spp” (Molecules : A Journal of Synthetic Chemistry and Natural …, 2017).

Assay [1] has as its system L. braziliensis promastigotes. In words: Leishmanicidal activity on promastigotes, resazurin. It counts as cell-based, Leishmania braziliensis. The procedure, abridged: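 Promastigotes (2 × 10^6/well) in Schneider's medium with 20% FBS treated with compound dilutions for 48 h at 26 °C. Resazurin reduction read at 570 and 600 nm; IC50 from duplicate experiments, triplicate concentrations.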
In general terms: Resazurin is reduced to fluorescent resorufin, in cell work by metabolically active cells.

Assay [2] has as its system T. cruzi epimastigotes, Tulahuen 2 strain (genotype TcVI). As to conditions: cited from earlier work.
In assay [3] the test system is NCTC929 fibroblasts. In words: Nonspecific cytotoxicity on fibroblasts, resazurin. It counts as cell-based. The following applies: NCTC-929, 24 h; read-out: IC50 ± SD Fibroblast NCTC929. In outline:
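NCTC929 murine fibroblasts seeded 3.00 × 10^4 cells/well, grown overnight, then exposed to compounds for 24 h at 37 °C, 5% CO2. Viability read by resazurin reduction (3 h), dual-wavelength absorbance at 490 and 595 nm with background subtracted. Each concentration tested three times.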

Assay [4] has as its target T1, LmTIM (triosephosphate isomerase from Leishmania mexicana) (Leishmania mexicana, UniProt P48499).
T1 construct: made in house; host or cells: Escherichia coli
In words: Inhibition of triosephosphate isomerase. Format: biochemical. As to conditions: read-out: Percentage of Inhibition LmTIM. On the procedure:
Compounds were dissolved in DMSO. […] The experiments were performed in triplicate.

Marks after values point to notes of the source that are not given here.

T1 sequence (P48499 whole entry): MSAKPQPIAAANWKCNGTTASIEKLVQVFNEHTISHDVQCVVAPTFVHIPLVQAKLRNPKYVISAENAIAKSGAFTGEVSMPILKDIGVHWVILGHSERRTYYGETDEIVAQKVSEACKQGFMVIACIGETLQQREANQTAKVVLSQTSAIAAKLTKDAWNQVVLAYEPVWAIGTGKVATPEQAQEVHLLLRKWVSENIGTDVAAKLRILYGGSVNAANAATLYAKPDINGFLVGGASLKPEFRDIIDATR

Turning to `C=CCn1c(-c2ccc(Cl)cc2)cs\c1=N/N=C/C=C/c1ccco1` [GAT1033], the IC50 (in general, the concentration needed to halve the response being measured) was 7 ± 1 µM in assay [1] (Leishmania braziliensis, 48 h, read-out: IC50 ± SD Promastigotes L. braziliensis); 1.6 ± 0.5 µM in assay [2] (read-out: IC50 ± SD Epimastigotes T. cruzi); 405 ± 10 µM in assay [3]. In addition, in assay [1] (ratio IC50 mammalian cell / IC50 parasite (promastigotes)), the “SI NCTC/ L. braziliensis” value is 58. Besides, the “SI J774.1/ T. cruzi” value in assay [2] (ratio IC50 mammalian cell / IC50 parasite (epimastigotes)) was 37 ^a. Also, the inhibition (in general, the percentage by which the read-out fell short of the control) at 100 µM in assay [4] came to 0%.
